Measured values taken from patent US8535897B2, “Assays for non-apoptotic cell death and uses thereof” (The Trustees of Columbia University in the City of New York, priority 2006, dated 2013).
Structures can show the parent of a compound that is named as a salt.

Experiments:
[1] = tested on: BJ-TERT/LT/ST/RAS^V12 cells; experiment: Suppression of erastin lethality by iron chelators (Alamar Blue); format: cell-based, human; conditions: 100 μM DFOM, 100 μM 1a, 100 μM 2, 10 μM or 1 μM 311, 24 h
Procedure: BJ-TERT/LT/ST/RAS^V12 cells were treated with erastin and four different iron chelators, desferrioxamine mesylate (DFOM), the compounds 1a and 2 whose structures are shown in FIG. 30, and the compound “311” (311-10 or 311-1) (Green, D. A, et al., Inhibition of Malignant Cell Growth by 311, a novel iron chelator of the pyridoxal isonicotinoyl hydrazone class: Effect on the R2 subunit of ribonucleotide reductase. Clinical Cancer Research, (7): 3574-3579 (2001). Cell killing was measured by Alamar Blue assay.
(a) BJ-TERT/LT/ST/RAS^V12 cells were treated with 9 μM erastin A1 for the indicated length of time, and the number of viable cells determined. (b) 1,000 BJ-TERT/LT/ST/RAS^V12 cells/well in 384-well plates were treated with erastin for 2 d, then alamar blue was added to a final concentration of 10% and the plates were incubated for 16 h. Red fluorescence resulting from reduction of alamar blue was detected on a Victor3 platereader. […] (e) The number of viable cells was quantified under each condition using a hemacytometer. […] BJ-TERT/LT/ST/RAS^V12 (shown in histogram plots, and in line graph as dark diamonds) or BJ-TERT cells (shown in line graph only, light circles) were treated with 4.6-μM erastin A1 and the level of intracellular oxidative species determined. […] ATP levels were measured, viable cells determined by Trypan Blue exclusion and ATP per viable cell determined. […]

VDAC1, VDAC2 and VDAC3 = experiment: VDAC chemi-proteomic identification (pull-down on immobilized erastin analogs); format: binding, human; conditions: BJ-TERT/LT/ST/RAS^V12 cell lysates
From the text: Erastin A6, Erastin A3, and erastin B2 were immobilized on solid-phase resins, and proteins that interact with A3 or A6, but not B2 were identified. […] In certain embodiments, wherein BJ-TERT cell lysates were used, a small amount of VDAC1 on the A3 and A6 resins was identified, but none of the VDACs were bound on the B2 resin. Thus, it appears that erastin A3 and A6 more efficiently isolate VDAC2 and VDAC3 compared to erastin B2.
Cultures of BJ-TERT and BJ-TERT/LT/ST/RAS^V12 cells (ten 150 mm plates) were washed with PBS, lysed in 25 mM hydroxyethylpiperazine-N′-2-ethanesulfonic acid (HEPES) pH 7.5, 150 mM NaCl, 1% NP-40, 10 mM MgCl2, 1 mM ethylene-diamine tetra acetate (EDTA), 10% glycerol, 1 mM dithiothreitol (DTT) and protease inhibitor cocktail. Protein concentration was determined using a Bradford colorimetric assay.
Erastin A3 and B2 were dissolved in DMSO at 10 mg/ml. 100 μL of AffiGel-10 was washed and resuspended in 400 μl DMSO. 10 μL of compound and 3 μL of 1:100 dilution of triethylamine in DMSO were added. […] Samples were analyzed using both a 4700 Proteomics Analyzer MALDI-TOF/TOF (TOF/TOF; Applied Biosystems) and a Q Trap (AB/MDS Sciez) and the peptide level data were combined. […]

BJ-TERT/LT/ST/RASV12 = experiment: Alamar blue viability assay, engineered tumor cells; format: cell-based, human; conditions: for selective lethality / activity in cells: BJ-TERT/LT/ST/RAS^V12 cells vs BJ-TERT cells
Procedure: Erastin was tested in a dilution series in five engineered cell lines derived from primary BJ fibroblasts. Cells were incubated with erastin for two days at 37° C. with 5% CO2, Alamar blue was added (10% final volume) and fluorescence measured (530 nm ex, 590 nm em). Cell lines harboring oncogenic RAS (triangles, circles and x's) were sensitive to erastin, but isogenic lines lacking oncogenic RAS (squares and diamonds) were resistant. Two different clones of engineered tumor cells (circles and triangles) responded similarly.
(a) BJ-TERT/LT/ST/RAS^V12 cells were treated with 9 μM erastin A1 for the indicated length of time, and the number of viable cells determined. (b) 1,000 BJ-TERT/LT/ST/RAS^V12 cells/well in 384-well plates were treated with erastin for 2 d, then alamar blue was added to a final concentration of 10% and the plates were incubated for 16 h. Red fluorescence resulting from reduction of alamar blue was detected on a Victor3 platereader. The percent growth inhibition is shown; error bars represent one SD. […] (c) TEM images (20,000× magnification) of BJ-TERT/LT/ST/RAS^V12 mitochondria after cells were treated with nothing, erastin (37 μM for 10 h) or staurosporine (STS, 1 μM for 5 h), and phase-contrast photograph of BJ-TERT/LT/ST/RAS^V12 cells 24 h after 9 μM erastin A1 treatment is also shown to indicate that even after cell death, nuclei are intact. (d) Anti-oxidants suppress erastin-induced death. BJ-TERT/LT/ST/RAS^V12 cells were treated as indicated and photographed. (e) The number of viable cells was quantified under each condition using a hemacytometer. (f) Iron chelators suppress erastin-induced cell death. Cells were seeded in 384-well plates (6,000 cells/well) and treated with 2-fold dilution series of erastin in the presence of 100 μM desferrioxamine mesylate (DFOM), 100 μM of iron chelator 1a, 100 μM of iron chelator 2, 10 μM or 1 μM of iron chelator 311. After 24 h, alamar blue was added and cell viability assayed. (g, h) Erastin-induced formation of oxidative species. BJ-TERT/LT/ST/RAS^V12 (shown in histogram plots, and in line graph as dark diamonds) or BJ-TERT cells (shown in line graph only, light circles) were treated with 4.6-μM erastin A1 and the level of intracellular oxidative species determined. (i, j) STS, but not erastin, induces PARP1 cleavage (red bands at top) in BJ-TERT/LT/ST/RAS^V12 cells and in A673, HT1080 and HeLa cells. NS: non-specific band. […] Cells were treated with STS or erastin, separated into mitochondrial and cytosolic fractions, and probed for cytochrome c (lower red band) and total VDAC (middle green band, pan-VDAC antibody). (1) Caspase-3 is not cleaved in response to erastin. Cells were treated as indicated and probed with an anti-caspase-3 antibody that recognizes both the full length and the cleaved, active form (lower band). […] ATP levels were measured, viable cells determined by Trypan Blue exclusion and ATP per viable cell determined. Abbreviations: DMSO, dimethylsulfoxide; BHT, butylated hydroxytoluene; TOC, alpha-tocopherol; ERA, erastin A1; CAR, beta-carotene; STS, staurosprine.
(a) Calu-1 lung carcinoma cells harboring oncogenic KRAS were infected with lentivirus containing shRNAs targeting KRAS or GFP. Sequences of shRNAs are indicated by starting nucleotide (nt) in the KRAS mRNA coding sequence. Cells were treated with erastin and viability measured by Trypan Blue exclusion. (b) Knockdown of KRAS was confirmed by western blot. (c,d) A673 cells harboring oncogenic BRAF were infected with lentiviral shRNAs targeting BRAF exon 5 (c) or the 5′ UTR (d), luciferase (LUC)(c) or GFP (d). Cells were treated with erastin and viability measured using Alamar Blue (c) and Trypan Blue (d). (e) Knockdown of BRAF was confirmed by western blot. […] BJ-TERT/LT/ST/RAS^V12 cells were treated with erastin alone or in with a MEK inhibitor U0126 (20 μM), MEK inhibitor I (10 μM) or MEK 1/2 inhibitor (50 μM). After 48 h, viability was determined using Trypan Blue. […]

[2] = tested on: BJ-TERT/LT/ST/RAS^V12 cells; experiment: Suppression of erastin lethality by MEK inhibitors (Trypan Blue); format: cell-based, human; conditions: U0126 20 μM, MEK inhibitor I 10 μM, MEK 1/2 inhibitor 50 μM, 48 h
Procedure: BJ-TERT/LT/ST/RASV12 engineered tumor cells were treated with the indicated concentrations of erastin and each MEK1/2 inhibitor for 24 hours and viability was determined by Trypan Blue exclusion.
Cells grown in 175 cm^2 flasks were reseeded in 6-well format (1.4×10^5 cells/well) and treated with erastin dilutions (5-fold, from 36 uM to 60 nM, with no-drug control, n=2) in the presence of one of the MEK inhibitors U0126 (20 uM), MEK inhibitor I (10 uM), MEK 1/2 inhibitor (50 uM), PD98059 (50 uM), MEK inhibitor II (30 uM), or in the absence of inhibitor. After 48 hours, cells were trypsinized and counted using a Vi-CELL™ Series Cell Viability Analyzer. […] Non-linear regression was used to fit curves to the data points using GraphPad Prism™ software. The bottom of each curve was set to zero.

[3] = tested on: BJ-TERT/LT/ST/RAS^V12 cells; experiment: Cell death, viable cells counted using a hemacytometer; format: cell-based, human; conditions: 13 μM erastin Al, 23 μM antimycin, 126 μM 2-ME or the combinations

Compound: O=C(N/N=C/c1c(O)ccc2ccccc12)c1ccncc1 [compound 311]
- effect of iron chelator on erastin lethality [1]: suppress erastin lethality

Compound: CCOc1ccccc1-n1c(C(C)N2CCN(C(=O)COc3ccc(CN)cc3)CC2)nc2ccccc2c1=O (centres unmarked) [erastin A3]
- VDAC isoforms identified on the immobilized analog resin (VDAC1, VDAC2 and VDAC3): all three isoforms of the human mitochondrial voltage-dependent anion channels (VDAC1, VDAC2 and VDAC3) were identified
- selective lethality / activity in cells (BJ-TERT/LT/ST/RASV12): retained the ability to kill BJ-TERT/LT/ST/RAS^V12 cells but not BJ-TERT cells

Compound: CCOc1ccccc1-n1c(C(C)N2CCN(C(C)=O)CC2)nc2ccccc2c1=O (centres unmarked) [erastin A8]
- selective lethality / activity in cells (BJ-TERT/LT/ST/RASV12): inactive

Compound: N#CC(=C(/N)Sc1ccccc1N)/C(C#N)=C(\N)Sc1ccccc1N [U0126]
- effect of MEK inhibitor on erastin lethality [2]: prevent erastin lethality

Compound: CCOc1ccccc1-n1c(C(C)N2CCN(C(=O)COc3ccc(Cl)cc3)CC2)nc2cc(NC(C)=O)ccc2c1=O (centres unmarked) [erastin A9]
- IC50 (BJ-TERT/LT/ST/RASV12; BJELR (BJ-TERT/LT/ST/RAS^V12) cells): 1900 nM

Compound: COc1cc2c(cc1O)CC[C@@H]1[C@@H]2CC[C@]2(C)[C@@H](O)CC[C@@H]12 [2-ME, 2-methoxyestradiol]
- Cell death (%) [3]: 66%

Compound: CC(C)NC(=O)N(CCN1CCN(C(=O)COc2ccc(Cl)cc2)CC1)Cc1ccc(F)cc1 [erastin B1]
- selective lethality / activity in cells (BJ-TERT/LT/ST/RASV12): inactive

Compound: CCOc1ccccc1-n1c(C(C)N2CCN(C(=O)COc3ccc(CN)cc3)CC2)nc2ccccc2c1=O (centres unmarked) [erastin A6]
- VDAC isoforms identified on the immobilized analog resin (VDAC1, VDAC2 and VDAC3): all three isoforms of the human mitochondrial voltage-dependent anion channels (VDAC1, VDAC2 and VDAC3) were identified
- selective lethality / activity in cells (BJ-TERT/LT/ST/RASV12; listed as ERA-A6): selectively lethal to RASV12-expressing cells

Compound: antimycin
- Cell death (%) [3]: 51%

Compound: N#CC(=C(N)Sc1ccc(N)cc1)c1ccccc1C(F)(F)F [MEK 1/2 inhibitor]
- effect of MEK inhibitor on erastin lethality [2]: prevent erastin lethality

Compound: CC(C)NC(=O)N(CCN1CCN(C(=O)COc2ccc(Cl)cc2)CC1)Cc1ccc(CN)cc1 [erastin B2]
- VDAC isoforms identified on the immobilized analog resin (VDAC1, VDAC2 and VDAC3): only VDAC1
- selective lethality / activity in cells (BJ-TERT/LT/ST/RASV12): lacks activity
- lethality (no lethality up to) (BJ-TERT/LT/ST/RASV12; BJELR cells): > 50 µM

Compound: N#C/C(=C(/N)Sc1ccccc1N)c1cccc(C(O)c2ccncc2)c1 (centres unmarked) [MEK inhibitor I]
- effect of MEK inhibitor on erastin lethality [2]: prevent erastin lethality

Compound: CC(=O)N(O)CCCCCNC(=O)CCC(=O)N(O)CCCCCNC(=O)CCC(=O)N(O)CCCCCN [desferrioxamine mesylate]
- effect of iron chelator on erastin lethality [1]: suppress erastin lethality
